Among the data in patent US8183262B2, “Pyridine derivatives as mGluR2 antagonists” (Hoffmann-La Roche Inc., priority 2007, dated 2012) are melting point values, retold here.

The structures appear in SMILES notation.

As a reminder, the melting point is the temperature, or range, at which the solid turns liquid. The molecule `NS(=O)(=O)c1ccc(-c2cccc(-c3nc(-c4ccc(C(F)(F)F)cc4)cc(C(F)F)n3)c2)s1` [Example 459, 5-{3-[4-Difluoromethyl-6-(4-trifluoromethyl-phenyl)-pyrimidin-2-yl]-phenyl}-thiophene-2-sulfonic acid amide] had a melting point of 240.5 °C.
With `NS(=O)(=O)c1ccc(-c2cccc(-c3nc(-c4ccc(F)c(F)c4)cc(C(F)(F)F)n3)c2)s1` [Example 388, 5-{3-[4-(3,4-Difluoro-phenyl)-6-trifluoromethyl-pyrimidin-2-yl]-phenyl}-thiophene-2-sulfonic acid amide] the figure was 238 °C; with `COCC(=O)NS(=O)(=O)c1cccc(-c2cccc(-c3cc(-c4ccc(C(F)(F)F)cc4)cc(C)n3)n2)c1` [Example 462, N-(2-Methoxy-acetyl)-3-[6′-methyl-4′-(4-trifluoromethyl-phenyl)-[2,2′]bipyridinyl-6-yl]-benzenesulfonamide], 188 °C; with `Cc1cc(-c2cc(C(F)(F)F)nc(-c3nc(-c4cccc(S(N)(=O)=O)c4)no3)n2)ccc1C(F)(F)F` [Example 129, 3-{5-[4-(3-Methyl-4-trifluoromethyl-phenyl)-6-trifluoromethyl-pyrimidin-2-yl]-[1,2,4}oxadiazol-3-yl]-benzenesulfonamide], 223.5 °C.
With `Cc1cc(-c2ccc(Cl)c(Cl)c2)nc(-c2ccnc(-c3cccc(S(N)(=O)=O)c3)c2)n1` [Example 194, 3-{4-[4-(3,4-Dichloro-phenyl)-6-methyl-pyrimidin-2-yl]-pyridin-2-yl}-benzenesulfonamide] the figure was 202.5 °C; with `NS(=O)(=O)c1cccc(-c2noc(-c3nc(-c4ccc(Cl)c(Cl)c4)cc(C(F)(F)F)n3)n2)c1` [Example 99, 3-{5-[4-(3,4-Dichloro-phenyl)-6-trifluoromethyl-pyrimidin-2-yl]-[1,2,4]oxadiazol-3-yl}-benzenesulfonamide], 258 °C.
To `Cc1nc(-c2cn(-c3cc(-c4ccc(C(F)(F)F)cc4)cc(C(F)(F)F)n3)cn2)sc1S(=O)(=O)NC(C)(C)C` [Example 300, 4-Methyl-2-{1-[6-trifluoromethyl-4-(4-trifluoromethyl-phenyl)-pyridin-2-yl]-1H-imidazol-4-yl}-thiazole-5-sulfonic acid tert-butylamide] belongs 260 °C.
The molecule `CC(C)(C)NS(=O)(=O)c1ccc(-c2cc(-c3cc(C(F)(F)F)cc(-c4ccc(C(F)(F)F)cc4)n3)ccn2)s1` [Example 319, 5-[4-Trifluoromethyl-6-(4-trifluoromethyl-phenyl)-[2,4′]bipyridinyl-2′-yl]-thiophene-2-sulfonic acid tert-butylamide] had a melting point of 220 °C.
With `NS(=O)(=O)c1ccc(-c2cccc(-c3nc(-c4ccc(C(F)(F)F)cc4F)cc(C(F)(F)F)n3)c2)s1` [Example 413, 5-{3-[4-(2-Fluoro-4-trifluoromethyl-phenyl)-6-trifluoromethyl-pyrimidin-2-yl]-phenyl}-thiophene-2-sulfonic acid amide] the figure was 192 °C.
With `CC(=O)NS(=O)(=O)c1cccc(-c2cccc(-c3cc(-c4ccc(C(F)(F)F)cc4)cc(C)n3)n2)c1` [Example 443, N-Acetyl-3-[6′-methyl-4′-(4-trifluoromethyl-phenyl)-[2,2′]bipyridinyl-6-yl]-benzenesulfonamide] the figure was 244 °C; with `NS(=O)(=O)c1cccc(-c2cc(-c3nc(-c4ccc(C(F)(F)F)cc4)cc(C(F)F)n3)ccn2)c1` [Example 457, 3-{4-[4-Difluoromethyl-6-(4-trifluoromethyl-phenyl)-pyrimidin-2-yl]-pyridin-2-yl}-benzenesulfonamide], 233.5 °C.
With `Nc1ncc(-c2cn(-c3cc(C(F)(F)F)cc(-c4ccc(C(F)(F)F)cc4)n3)cn2)cn1` [Example 66, 5-{1-[4-Trifluoromethyl-6-(4-trifluoromethyl-phenyl)-pyridin-2-yl]-1H-imidazol-4-yl}-pyrimidin-2-ylamine] the figure was more than 250 °C; with `Cc1cc(-c2ccc(C(F)(F)F)cc2)cc(-c2cccc(-c3cccc(S(=O)(=O)NCc4ccc(F)cc4)c3)n2)n1` [Example 433, N-(4-Fluoro-benzyl)-3-[6′-methyl-4′-(4-trifluoromethyl-phenyl)-[2,2′]bipyridinyl-6-yl]-benzenesulfonamide], 175 °C.
`Cc1cc(-c2ccc(C(F)(F)F)cc2)cc(-c2cncc(-c3cnc(N)nc3)c2)n1` [Example 68, 5-[6-Methyl-4-(4-trifluoromethyl-phenyl)-[2,3′]bipyridinyl-5′-yl]-pyrimidin-2-ylamine] registered a melting point of 248 to 252 °C.
With `Nc1ccc(-c2cn(-c3nccc(-c4ccc(Cl)cc4)n3)cn2)cn1` [Example 52, 5-{1-[4-(4-Chloro-phenyl)-pyrimidin-2-yl]-1H-imidazol-4-yl}-pyridin-2-ylamine] the figure was 188 to 190 °C; with `Cc1cc(-c2ccc(Cl)c(Cl)c2)cc(-c2ccc(-c3cnc(N)nc3)s2)n1` [Example 255, 5-{5-[4-(3,4-Dichloro-phenyl)-6-methyl-pyridin-2-yl]-thiophen-2-yl}-pyrimidin-2-ylamine], 237 °C; with `Cc1cc(-c2ccc(Cl)c(C)c2)nc(-n2cnc(-c3ccc(N)nc3)c2)n1` [Example 226, 5-{1-[4-(4-Chloro-3-methyl-phenyl)-6-methyl-pyrimidin-2-yl]-1H-imidazol-4-yl}-pyridin-2-ylamine], 202 °C (dec.).
With `FC(F)(F)c1ccc(-c2cc(C(F)(F)F)nc(-c3cccnc3)n2)cc1` [Example 37, 2-Pyridin-3-yl-4-trifluoromethyl-6-(4-trifluoromethyl-phenyl)-pyrimidine] the figure was 134 °C.
To `Nc1ccc(-c2cn(-c3nc(-c4ccc(Cl)c(Cl)c4)cc(C(F)(F)F)n3)cn2)cn1` [Example 102, 5-{1-[4-(3,4-Dichloro-phenyl)-6-trifluoromethyl-pyrimidin-2-yl]-1H-imidazol-4-yl}-pyridin-2-ylamine] belongs 282.5 °C; to `Nc1ccc(-c2cn(-c3nc(-c4ccc(C(F)(F)F)cc4)cc(C(F)F)n3)cn2)cn1` [Example 32, 5-{1-[4-Difluoromethyl-6-(4-trifluoromethyl-phenyl)-pyrimidin-2-yl]-1H-imidazol-4-yl}-pyridin-2-ylamine], 253.5 °C.
As to `Cc1nc(-c2cn(-c3cc(-c4ccc(C(F)(F)F)cc4)cc(C(F)(F)F)n3)cn2)sc1S(N)(=O)=O` [Example 312, 4-Methyl-2-{1-[6-trifluoromethyl-4-(4-trifluoromethyl-phenyl)-pyridin-2-yl]-1H-imidazol-4-yl}-thiazole-5-sulfonic acid amide], the melting point was 170 °C (dec.).
With `NS(=O)(=O)c1cccc(-c2cccc(-c3nc(-c4ccc(Cl)c(Cl)c4)cc(C(F)(F)F)n3)c2)c1` [Example 202, 3′-[4-(3,4-Dichloro-phenyl)-6-trifluoromethyl-pyrimidin-2-yl]-biphenyl-3-sulfonic acid amide] the figure was 241 °C; with `Cc1cc(-c2ccc(C(F)(F)F)cc2)cc(-c2cccc(-c3cncc(S(=O)(=O)NC(C)(C)CO)c3)c2)n1` [Example 257, 5-{3-[6-Methyl-4-(4-trifluoromethyl-phenyl)-pyridin-2-yl]-phenyl}-pyridine-3-sulfonic acid (2-hydroxy-1,1-dimethyl-ethyl)-amide], 105 °C (dec.).
